According to BigSolDB 2.1:

CC[C@H](C)[C@H](N)C(=O)O
solubility (mole fraction)
Conditions | 283.15 K | 288.15 K | 293.15 K | 298.15 K | 303.15 K | 308.15 K | 313.15 K | 318.15 K | 323.15 K | 328.15 K
in 1,4-dioxane | – | 0.00118 | 0.00132 | 0.00146 | 0.00172 | 0.00195 | 0.00226 | 0.00258 | 0.00303 | 0.00339
in 2-butanone | 0.000223 | 0.000324 | 0.000415 | 0.000538 | 0.000646 | 0.000819 | 0.000978 | 0.00118 | 0.00145 | –
in acetone | 1.21e-05 | 1.47e-05 | 1.82e-05 | 2.04e-05 | 3.19e-05 | 4.37e-05 | 6.14e-05 | 8.28e-05 | 0.000132 | –
in acetonitrile | 0.000153 | 0.000185 | 0.000276 | 0.000303 | 0.000374 | 0.000451 | 0.000525 | 0.000582 | 0.0007 | –
in ethanol | 0.000199 | 0.000227 | 0.000285 | 0.000363 | 0.000532 | 0.000716 | 0.000881 | 0.00101 | 0.00118 | –
in ethyl acetate | 0.000398 | 0.000441 | 0.000482 | 0.000544 | 0.000609 | 0.000656 | 0.000722 | 0.000803 | 0.000891 | –
in isobutanol | 0.00106 | 0.00125 | 0.0015 | 0.00186 | 0.00216 | 0.00246 | 0.00298 | 0.00346 | 0.00394 | –
in isopropanol | 0.00147 | 0.00173 | 0.00207 | 0.00241 | 0.00285 | 0.0034 | 0.00394 | 0.00454 | 0.00494 | –
in methanol | 0.000793 | 0.000814 | 0.000848 | 0.000891 | 0.000935 | 0.000984 | 0.00105 | 0.00114 | 0.00125 | –
in methyl acetate | 0.00174 | 0.00194 | 0.00223 | 0.00263 | 0.00292 | 0.00332 | 0.00387 | 0.00472 | 0.00545 | –
in n-butanol | 9.12e-05 | 0.000142 | 0.000221 | 0.000282 | 0.000372 | 0.000468 | 0.000585 | 0.00068 | 0.000838 | –
in n-propanol | 0.000187 | 0.000226 | 0.000268 | 0.000349 | 0.000515 | 0.00069 | 0.000817 | 0.0009 | 0.00101 | –
